Measurements from PubChem BioAssay (NCI).
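96-well plates; 48 h exposure; 5 concentrations. Endpoints by linear interpolation between flanking doses. Not reached: highest tested concentration assigned. GI50 marks 50% less growth. At the TGI there is no net growth.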

Experiments:
Test in all cases: inhibition of tumour cell growth, NCI panel, 48 h
[1] = test system: TK-10 renal
[2] = test system: RPMI-8226 leukemia
[3] = test system: ACHN renal
[4] = test system: UACC-257 melanoma
[5] = test system: HL-60(TB) leukemia
[6] = test system: K-562 leukemia
[7] = test system: 786-0 renal
[8] = test system: COLO 205 colon
[9] = test system: UACC-62 melanoma
[10] = test system: MDA-MB-231 breast
[11] = test system: EKVX NSCLC
[12] = test system: OVCAR-5 ovarian
[13] = test system: M14 melanoma
[14] = test system: HT29 colon
[15] = test system: OVCAR-4 ovarian
[16] = test system: SF-295 CNS
[17] = test system: NCI-H460 lung
[18] = test system: SNB-75 CNS
[19] = test system: HCC-2998 colon
[20] = test system: CCRF-CEM leukemia
[21] = test system: SK-OV-3 ovarian
[22] = test system: HCT-116 colon
[23] = test system: A498 renal
[24] = test system: MDA-MB-435
[25] = test system: UO-31 renal
[26] = test system: MCF7 breast
[27] = test system: HOP-92 NSCLC
[28] = test system: IGROV1 ovarian
[29] = test system: CAKI-1 renal
[30] = test system: SF-539 CNS
[31] = test system: SF-268 CNS
[32] = test system: HS 578T breast
[33] = test system: T-47D breast
[34] = test system: SK-MEL-28 melanoma
[35] = test system: DU-145 prostate
[36] = test system: BT-549 breast
[37] = test system: NCI-H226 lung
[38] = test system: MALME-3M melanoma
[39] = test system: KM12 colon
[40] = test system: NCI-H23 lung
[41] = test system: SK-MEL-5 melanoma
[42] = test system: U251 CNS
[43] = test system: A549 NSCLC
[44] = test system: LOX IMVI melanoma
[45] = test system: SNB-19 CNS
[46] = test system: HCT-15 colon
[47] = test system: NCI-H522 lung
[48] = test system: OVCAR-8 ovarian
[49] = test system: PC-3 prostate
[50] = test system: NCI/ADR-RES ovarian
[51] = test system: OVCAR-3 ovarian
[52] = test system: SR leukemia
[53] = test system: RXF 393 renal
[54] = test system: SN12C renal
[55] = test system: MOLT-4 leukemia
[56] = test system: SW-620 colon
[57] = test system: SK-MEL-2 melanoma
[58] = test system: HOP-62 NSCLC

NC(N)=N/N=C/c1cccc(Cl)c1Cl
GI50 [1]: 11.9 µM
TGI [1]: 24.4 µM
GI50 [2]: 3.39 µM
TGI [2]: 15.1 µM
GI50 [3]: 12.4 µM
TGI [3]: 25.9 µM
GI50 [4]: 6.26 µM
TGI [4]: 20.6 µM
GI50 [5]: 3.46 µM
TGI [5]: 8.16 µM
GI50 [6]: 3.92 µM
TGI [6]: 13.9 µM
GI50 [7]: 11.1 µM
TGI [7]: 24.7 µM
GI50 [8]: 1.69 µM
TGI [8]: 3.13 µM
GI50 [9]: 1.85 µM
TGI [9]: 4.96 µM
GI50 [10]: 3.63 µM
TGI [10]: 14.7 µM
GI50 [11]: 9.02 µM
TGI [11]: 24.2 µM
GI50 [12]: 12.4 µM
TGI [12]: 26.3 µM
GI50 [13]: 1.98 µM
TGI [13]: 4.04 µM
GI50 [14]: 2.31 µM
TGI [14]: 5.98 µM
GI50 [15]: 13 µM
TGI [15]: 26.8 µM
GI50 [16]: 2.83 µM
TGI [16]: 10.3 µM
GI50 [17]: 3.76 µM
TGI [17]: 14.7 µM
GI50 [18]: 11.6 µM
TGI [18]: 26.9 µM
GI50 [19]: 1.73 µM
TGI [19]: 3.47 µM
GI50 [20]: 7.26 µM
TGI [20]: 29.2 µM
GI50 [21]: 7.06 µM
TGI [21]: 20 µM
GI50 [22]: 3.24 µM
TGI [22]: 10.8 µM
GI50 [23]: 11.1 µM
TGI [23]: 25.6 µM
GI50 [24]: 1.77 µM
TGI [24]: 3.89 µM
GI50 [25]: 10.1 µM
TGI [25]: 22.7 µM
GI50 [26]: 2.09 µM
TGI [26]: 5.03 µM
GI50 [27]: 1.19 µM
TGI [27]: 5.88 µM
GI50 [28]: 11 µM
TGI [28]: 25.6 µM
GI50 [29]: 6.62 µM
TGI [29]: 21.8 µM
GI50 [30]: 15.6 µM
TGI [30]: 31.2 µM
GI50 [31]: 11.8 µM
TGI [31]: 25.5 µM
GI50 [32]: 12.2 µM
TGI [32]: 34.9 µM
GI50 [33]: 1.54 µM
TGI [33]: 3.64 µM
GI50 [34]: 4.24 µM
TGI [34]: 14.7 µM
GI50 [35]: 9.18 µM
TGI [35]: 21.1 µM
GI50 [36]: 13.2 µM
TGI [36]: 28.7 µM
GI50 [37]: 13.6 µM
TGI [37]: 29.2 µM
GI50 [38]: 4.62 µM
TGI [38]: 18.1 µM
GI50 [39]: 2.17 µM
TGI [39]: 4.91 µM
GI50 [40]: 11.2 µM
TGI [40]: 26.4 µM
GI50 [41]: 2.33 µM
TGI [41]: 6.64 µM
GI50 [42]: 3.4 µM
TGI [42]: 13.2 µM
GI50 [43]: 7.51 µM
TGI [43]: 21.9 µM
GI50 [44]: 2.49 µM
TGI [44]: 8.4 µM
GI50 [45]: 3.32 µM
TGI [45]: 11.8 µM
GI50 [46]: 3.25 µM
TGI [46]: 11.7 µM
GI50 [47]: 3.16 µM
TGI [47]: 13.6 µM
GI50 [48]: 8.93 µM
TGI [48]: 25.8 µM
GI50 [49]: 10.8 µM
TGI [49]: 23.6 µM
GI50 [50]: 8.38 µM
TGI [50]: 24 µM
GI50 [51]: 4.55 µM
TGI [51]: 14.9 µM
GI50 [52]: 2.72 µM
TGI [52]: 11.2 µM
GI50 [53]: 4.75 µM
TGI [53]: 18.3 µM
GI50 [54]: 3.92 µM
TGI [54]: 16.3 µM
GI50 [55]: 6.13 µM
TGI [55]: 23.9 µM
GI50 [56]: 2.25 µM
TGI [56]: 5.89 µM
GI50 [57]: 2.22 µM
TGI [57]: 4.16 µM
GI50 [58]: 11.7 µM
TGI [58]: 24.1 µM

COc1cc(C2CC(c3ccc4c(c3)OCO4)=NN2C(C)=O)cc(OC)c1OC (stereo not given)
GI50 [1]: 7.59 µM
TGI [1]: > 100 µM
GI50 [2]: 2.74 µM
TGI [2]: > 25.7 µM
GI50 [3]: 3.66 µM
TGI [3]: > 100 µM
GI50 [4]: > 35.2 µM
TGI [4]: > 100 µM
GI50 [5]: 0.316 µM
TGI [5]: 2.92 µM
GI50 [6]: 0.353 µM
TGI [6]: > 100 µM
GI50 [7]: 3.65 µM
TGI [7]: > 100 µM
GI50 [8]: 0.466 µM
TGI [8]: 2.6 µM
GI50 [9]: 0.493 µM
TGI [9]: > 100 µM
GI50 [10]: 4.07 µM
TGI [10]: > 100 µM
GI50 [11]: 3.13 µM
TGI [11]: > 100 µM
GI50 [12]: 4.28 µM
TGI [12]: > 100 µM
GI50 [13]: 0.536 µM
TGI [13]: > 39.7 µM
GI50 [14]: 0.378 µM
TGI [14]: > 100 µM
GI50 [15]: 5.45 µM
TGI [15]: > 100 µM
GI50 [16]: 0.368 µM
TGI [16]: 4.51 µM
GI50 [17]: 0.398 µM
TGI [17]: > 59.8 µM
GI50 [18]: 0.398 µM
TGI [18]: 3.5 µM
GI50 [19]: 2.36 µM
TGI [19]: 60 µM
GI50 [20]: 0.79 µM
TGI [20]: > 27 µM
GI50 [21]: 0.972 µM
TGI [21]: > 65.8 µM
GI50 [22]: 0.491 µM
TGI [22]: > 100 µM
GI50 [23]: 0.296 µM
TGI [23]: 4.75 µM
GI50 [24]: 0.183 µM
TGI [24]: 0.674 µM
GI50 [25]: 3.72 µM
TGI [25]: > 86.8 µM
GI50 [26]: 0.352 µM
TGI [26]: > 100 µM
GI50 [27]: > 100 µM
TGI [27]: > 100 µM
GI50 [28]: 1.19 µM
TGI [28]: 97.3 µM
GI50 [29]: 0.715 µM
TGI [29]: > 100 µM
GI50 [30]: 0.592 µM
TGI [30]: 7.29 µM
GI50 [31]: 6.42 µM
TGI [31]: > 100 µM
GI50 [32]: 1.26 µM
TGI [32]: > 74.1 µM
GI50 [33]: 1.44 µM
TGI [33]: > 64.8 µM
GI50 [34]: 4.97 µM
TGI [34]: > 100 µM
GI50 [35]: 1.06 µM
TGI [35]: > 21.4 µM
GI50 [36]: 6.82 µM
TGI [36]: > 100 µM
GI50 [37]: 13.5 µM
TGI [37]: > 100 µM
GI50 [38]: 1.88 µM
TGI [38]: > 100 µM
GI50 [39]: 0.422 µM
TGI [39]: 52.9 µM
GI50 [40]: 1.81 µM
TGI [40]: > 100 µM
GI50 [41]: 0.419 µM
TGI [41]: 8.07 µM
GI50 [42]: 0.899 µM
TGI [42]: > 100 µM
GI50 [43]: 2.42 µM
TGI [43]: > 100 µM
GI50 [44]: 1.89 µM
TGI [44]: > 100 µM
GI50 [45]: 1.91 µM
TGI [45]: > 100 µM
GI50 [46]: 0.584 µM
TGI [46]: > 100 µM
GI50 [47]: 0.382 µM
GI50 [48]: 5.51 µM
TGI [48]: > 100 µM
GI50 [49]: 4.39 µM
TGI [49]: > 100 µM
GI50 [50]: 0.405 µM
GI50 [51]: 0.297 µM
TGI [51]: 0.808 µM
GI50 [52]: 0.33 µM
TGI [52]: > 37 µM
GI50 [53]: 1.56 µM
TGI [53]: > 23.2 µM
GI50 [54]: 7.48 µM
TGI [54]: > 100 µM
GI50 [55]: 1.05 µM
TGI [55]: > 50.5 µM
GI50 [56]: 0.426 µM
TGI [56]: > 100 µM
GI50 [57]: > 100 µM
TGI [57]: > 100 µM
GI50 [58]: 1.14 µM
TGI [58]: > 100 µM
